Source: US20250154146A1, “PROTEIN DEGRADERS DEVELOPED ON BASIS OF BCL-2 FAMILY PROTEIN LIGAND COMPOUNDS AND USE THEREOF” (ShanghaiTech University, priority 2022, published 2025)

Columns and labels:
Type in all cases: cell-based
MV4;11 cells = experiment: Thiazolyl blue cell proliferation assay in MV4;11 cells; conditions: Homo sapiens, MV4;11 myeloid monocytic leukemia cells, 48 hours, read-out: IC50 (nM) for inhibiting the proliferation of MV4;11 cells
From the text: (§1) The cell lines RS4;11 (human acute lymphocytic leukemia cells), Molt-4 cells (human acute lymphocytic leukemia cells), MV4;11 (human myeloid monocytic leukemia cells), and Light II cells were commercially available or purchased from ATCC (American Type Culture Collection) and routinely cultured according to instructions.
2) Study on the proliferation inhibition effects induced by the compounds of the present disclosure designed based on ABT199/263 against BCL-XL-dependent MV4;11 cells:
(§2) The specific steps were as follows: MV4;11 cells were seeded at a density of 2×10^4 cells/well in 90 μL of serum-containing IMDM culture medium. DT2216 and the compounds of the present disclosure were added to the cell suspension at corresponding concentration gradients. DT2216 and DMSO were used as positive and vehicle control, respectively. The positive control and negative control were treated with the same treatment method as the compounds of the present disclosure. After treating the cells with the compounds of the present disclosure for 48 hours, thiazole blue solution (5 mg/mL) was added at 10 µL/well to the cell suspension, followed by incubation for 3 hours at 37° C. in an incubator with 5% CO2. Then, triple solution (0.1 g/mL SDS, 5% isopropyl alcohol, 10 mM hydrochloric acid) was added, followed by incubation for 4-6 hours at 37° C. in an incubator with 5% CO2. After confirming that all the crystal violets were dissolved under inverted biological microscopy, the absorbance was measured at 490 nm using an Epoch microplate reader (Biotek Corporation). The growth inhibition of the compounds of the present disclosure on the cells was plotted by GraphPad Prism 8 software, and the IC50 values of the compounds of the present disclosure were calculated therefrom. The experiment had 3 replicates per group and was repeated at least three times.

RS4;11 cells = experiment: Thiazolyl blue cell proliferation assay in RS4;11 cells; conditions: Homo sapiens, RS4;11 acute lymphoblastic leukemia cells, 48 hours, read-out: IC50 (nM) for inhibiting the proliferation of RS4;11 cells
From the text: as §1
1) Study on the proliferation inhibition effects induced by the compounds of the present disclosure designed based on ABT199/263 against BCL-XL-dependent RS4;11 cells:
as §2, with “RS4;11” for “MV4;11”, “3×10^4” for “2×10^4”, “RPMI-1640” for “IMDM”, “μL/well” for “µL/well”
We conducted dose-dependent experiments on the designed and synthesized compounds of the present disclosure in RS4;11 cells, which are highly sensitive to BCL-XL inhibitors. The cells were treated with 7 different concentrations (starting at the highest concentration of 1000 nM or 100 nM; 10-fold serial dilutions) of the compounds for 48 hours, and then tested using the thiazolyl blue cell proliferation assay.

Molt-4 cells = experiment: Thiazolyl blue cell proliferation assay in Molt-4 cells; conditions: Homo sapiens, Molt-4 acute lymphocytic leukemia cells, 72 hours, read-out: IC50 (nM) for inhibiting the proliferation of Molt-4 cells
From the text: as §1
3) Study on the proliferation inhibition effects induced by the compounds of the present disclosure designed based on ABT199/263 against BCL-XL-dependent Molt-4 cells:
as §2, with “follows: Molt-4” for “follows: MV4;11”, “in 180” for “in 90”, “serum-containing RPMI 1640” for “serum-containing IMDM”, “for 72” for “for 48”, “at 20 μL/well” for “at 10 µL/well”

[1] = tested on: Hedgehog (Hh) signaling pathway; experiment: Dual-luciferase reporter assay of Hedgehog activity in Light II cells; conditions: SAG stimulation, 36 h, dual-luciferase assay reporter kit, read-out: IC50 (nM) in Light II cells (inhibiting Hedgehog activity)
Experimental: Determination of the IC50 Values of Compounds Inhibiting Hedgehog Activity—Dual-Luciferase Reporter Assay:
Light II cells were NIH3T3 cell lines that stably express the Gli-luciferase and TK-renilla reporters. They were cultured with DMEM medium containing 10% (v/v) fetal bovine serum (FBS), 0.4 mg/ml G418, 0.15 mg/ml bleomycin (Zeocin), and penicillin/streptomycin at 37° C. in an incubator with 5% CO2. Light II cells in the logarithmic growth phase were seeded at a density of 2.5×10^4 cells/well in a 96-well plate. After 24h incubation, the cells were subjected to treatment with SAG with or without different concentrations of the compounds of the present disclosure for 36 h. After that, the Hedgehog activity was measured using the dual fluorescence reporter kit according to its instructions. The experiment had 3 replicates per group and was repeated at least three times.

SMILES | IC50 (MV4;11 cells) [nM] | IC50 (RS4;11 cells) [nM] | IC50 (Molt-4 cells) [nM] | IC50 [1] [nM]
C[C@H]1CN([C@H]2CC[C@@H](CNc3ccc(S(=O)(=O)NC(=O)c4ccc(N5CCN(CC6=C(c7ccc(Cl)cc7)CC(C)(C)CC6)CC5)cc4Oc4cnc5[nH]ccc5c4)cc3[N+](=O)[O-])CC2)CCN1Cc1ccc2c(c1)CN(C1CCC(=O)NC1=O)C2=O (stereo partly drawn) [BCL-03165, 2-((1H-pyrrolo[2,3-b]pyridin-5-yl)oxy)-4-(4-((4′-chloro-5,5-dimethyl-3,4,5,6-tetrahydro-[1,1′-biphenyl]-2-yl)methyl)piperazin-1-yl)-N-((4-((((cis)-4-((3S)-4-((2-(2,6-dioxopiperidin-3-yl)-1-oxoisoindolin-5-yl)methyl)-3-methylpiperazin-1-yl)cyclohexyl)methyl)amino)-3-nitrophenyl)sulfonyl)benzamide] | < 20 | < 20 | < 10 | < 10
C[C@H]1CN([C@H]2CC[C@H](CNc3ccc(S(=O)(=O)NC(=O)c4ccc(N5CCN(CC6=C(c7ccc(Cl)cc7)CC(C)(C)CC6)CC5)cc4Oc4cnc5[nH]ccc5c4)cc3[N+](=O)[O-])CC2)CCN1Cc1ccc2c(c1)CN(C1CCC(=O)NC1=O)C2=O (stereo partly drawn) [BCL-03166, 2-((1H-pyrrolo[2,3-b]pyridin-5-yl)oxy)-4-(4-((4′-chloro-5,5-dimethyl-3,4,5,6-tetrahydro-[1,1′-biphenyl]-2-yl)methyl)piperazin-1-yl)-N-((4-((((trans)-4-((3S)-4-((2-(2,6-dioxopiperidin-3-yl)-1-oxoisoindolin-5-yl)methyl)-3-methylpiperazin-1-yl)cyclohexyl)methyl)amino)-3-nitrophenyl)sulfonyl)benzamide] | < 20 | < 20 | < 10 | < 10
C[C@@H]1CN([C@H]2CC[C@@H](CNc3ccc(S(=O)(=O)NC(=O)c4ccc(N5CCN(CC6=C(c7ccc(Cl)cc7)CC(C)(C)CC6)CC5)cc4Oc4cnc5[nH]ccc5c4)cc3[N+](=O)[O-])CC2)CCN1Cc1ccc2c(c1)CN(C1CCC(=O)NC1=O)C2=O (stereo partly drawn) [BCL-03167, 2-((1H-pyrrolo[2,3-b]pyridin-5-yl)oxy)-4-(4-((4′-chloro-5,5-dimethyl-3,4,5,6-tetrahydro-[1,1′-biphenyl]-2-yl)methyl)piperazin-1-yl)-N-((4-((((cis)-4-((3R)-4-((2-(2,6-dioxopiperidin-3-yl)-1-oxoisoindolin-5-yl)methyl)-3-methylpiperazin-1-yl)cyclohexyl)methyl)amino)-3-nitrophenyl)sulfonyl)benzamide] | < 20 | < 20 | < 10 | < 10
CC1(C)CCC(CN2CCN(c3ccc(C(=O)NS(=O)(=O)c4ccc(NC[C@H]5CC[C@H](N6CCN(Cc7cc(Br)c8c(c7)C(=O)N(C7CCC(=O)NC7=O)C8)CC6)CC5)c(S(=O)(=O)C(F)(F)F)c4)c(Oc4cnc5[nH]ccc5c4)c3)CC2)=C(c2ccc(Cl)cc2)C1 (stereo partly drawn) [BCL-03182, 2-((1H-pyrrolo[2,3-b]pyridin-5-yl)oxy)-N-((4-((((trans)-4-(4-((7-bromo-2-(2,6-dioxopiperidin-3-yl)-3-oxoisoindolin-5-yl)methyl)piperazin-1-yl)cyclohexyl)methyl)amino)-3-((trifluoromethyl)sulfonyl)phenyl)sulfonyl)-4-(4-((4′-chloro-5,5-dimethyl-3,4,5,6-tetrahydro-[1,1′-biphenyl]-2-yl)methyl)piperazin-1-yl)benzamide] | < 20 | < 20 | < 10 | 
CC1(C)CCC(CN2CCN(c3ccc(C(=O)NS(=O)(=O)c4ccc(NC[C@H]5CC[C@H](N6CCN(Cc7ccc8c(c7)C(=O)N(C7CCC(=O)NC7=O)C8=O)CC6)CC5)c(S(=O)(=O)C(F)(F)F)c4)c(Oc4cnc5[nH]ccc5c4)c3)CC2)=C(c2ccc(Cl)cc2)C1 (stereo partly drawn) [BCL-03185, 2-((1H-pyrrolo[2,3-b]pyridin-5-yl)oxy)-4-(4-((4′-chloro-5,5-dimethyl-3,4,5,6-tetrahydro-[1,1′-biphenyl]-2-yl)methyl)piperazin-1-yl)-N-((4-((((trans)-4-(4-((2-(2,6-dioxopiperidin-3-yl)-1,3-dioxoisoindolin-5-yl)methyl)piperazin-1-yl)cyclohexyl)methyl)amino)-3-((trifluoromethyl)sulfonyl)phenyl)sulfonyl)benzamide] | < 20 | < 20 | < 10 | 
C[C@H]1CN([C@H]2CC[C@@H](CNc3ccc(S(=O)(=O)NC(=O)c4ccc(N5CCN(CC6=C(c7ccc(Cl)cc7)CC(C)(C)CC6)CC5)cc4Oc4cnc5[nH]ccc5c4)cc3[N+](=O)[O-])CC2)CCN1Cc1ccc2c(c1)C(=O)N(C1CCC(=O)NC1=O)C2=O (stereo partly drawn) [BCL-03190, 2-((1H-pyrrolo[2,3-b]pyridin-5-yl)oxy)-4-(4-((4′-chloro-5,5-dimethyl-3,4,5,6-tetrahydro-[1,1′-biphenyl]-2-yl)methyl)piperazin-1-yl)-N-((4-((((cis)-4-((3S)-4-((2-(2,6-dioxopiperidin-3-yl)-1,3-dioxoisoindolin-5-yl)methyl)-3-methylpiperazin-1-yl)cyclohexyl)methyl)amino)-3-nitrophenyl)sulfonyl)benzamide] | < 20 | < 20 | < 10 | 
Cc1ncsc1-c1ccc([C@H](C)NC(=O)[C@@H]2C[C@@H](O)CN2C(=O)[C@@H](NC(=O)CCCCCC(=O)N2CCN(CC[C@H](CSc3ccccc3)Nc3ccc(S(=O)(=O)NC(=O)c4ccc(N5CCN(CC6=C(c7ccc(Cl)cc7)CCC(C)(C)C6)CC5)cc4)cc3S(=O)(=O)C(F)(F)F)CC2)C(C)(C)C)cc1 [DT2216, reference compound] | 165 ± 70.7 | 81 ± 24.9 | 17.3 ± 9.57 | 
